Laboratory results as given in PubChem BioAssay (NCI).
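All cell lines were grown in 96-well plates and treated with compound for 48 hours. TGI is the concentration that stops growth completely.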

Columns and labels:
Assay in all cases: DTP human tumour cell line panel, 48 h
BT-549 breast = test system: BT-549 breast
SW-620 colon = test system: SW-620 colon
SK-MEL-5 melanoma = test system: SK-MEL-5 melanoma
K-562 leukemia = test system: K-562 leukemia
HCT-116 colon = test system: HCT-116 colon
CCRF-CEM leukemia = test system: CCRF-CEM leukemia
HOP-92 NSCLC = test system: HOP-92 NSCLC
HCC-2998 colon = test system: HCC-2998 colon
SK-OV-3 ovarian = test system: SK-OV-3 ovarian
MDA-N = test system: MDA-N
RPMI-8226 leukemia = test system: RPMI-8226 leukemia
MOLT-4 leukemia = test system: MOLT-4 leukemia
T-47D breast = test system: T-47D breast
NCI/ADR-RES ovarian = test system: NCI/ADR-RES ovarian
M14 melanoma = test system: M14 melanoma
OVCAR-4 ovarian = test system: OVCAR-4 ovarian
SN12C renal = test system: SN12C renal
MDA-MB-435 = test system: MDA-MB-435
A498 renal = test system: A498 renal
786-0 renal = test system: 786-0 renal
HT29 colon = test system: HT29 colon
OVCAR-5 ovarian = test system: OVCAR-5 ovarian
U251 CNS = test system: U251 CNS
SK-MEL-2 melanoma = test system: SK-MEL-2 melanoma
SF-539 CNS = test system: SF-539 CNS
NCI-H522 lung = test system: NCI-H522 lung
SF-268 CNS = test system: SF-268 CNS
IGROV1 ovarian = test system: IGROV1 ovarian
ACHN renal = test system: ACHN renal
HCT-15 colon = test system: HCT-15 colon
SF-295 CNS = test system: SF-295 CNS
SR leukemia = test system: SR leukemia
NCI-H460 lung = test system: NCI-H460 lung
PC-3 prostate = test system: PC-3 prostate
SK-MEL-28 melanoma = test system: SK-MEL-28 melanoma
OVCAR-8 ovarian = test system: OVCAR-8 ovarian
SNB-19 CNS = test system: SNB-19 CNS
LOX IMVI melanoma = test system: LOX IMVI melanoma
NCI-H226 lung = test system: NCI-H226 lung
MCF7 breast = test system: MCF7 breast
COLO 205 colon = test system: COLO 205 colon
UO-31 renal = test system: UO-31 renal
TK-10 renal = test system: TK-10 renal
MDA-MB-231 breast = test system: MDA-MB-231 breast
RXF 393 renal = test system: RXF 393 renal
KM12 colon = test system: KM12 colon
EKVX NSCLC = test system: EKVX NSCLC
DU-145 prostate = test system: DU-145 prostate
OVCAR-3 ovarian = test system: OVCAR-3 ovarian
MALME-3M melanoma = test system: MALME-3M melanoma
NCI-H23 lung = test system: NCI-H23 lung
HOP-62 NSCLC = test system: HOP-62 NSCLC
UACC-62 melanoma = test system: UACC-62 melanoma
A549 NSCLC = test system: A549 NSCLC
HS 578T breast = test system: HS 578T breast
SNB-75 CNS = test system: SNB-75 CNS
HL-60(TB) leukemia = test system: HL-60(TB) leukemia
UACC-257 melanoma = test system: UACC-257 melanoma
CAKI-1 renal = test system: CAKI-1 renal

COC(=O)c1ccc2c(O)c(O)ccc2c1
TGI (BT-549 breast): 27.2 µM | TGI (SW-620 colon): 25.3 µM | TGI (SK-MEL-5 melanoma): 8.58 µM | TGI (K-562 leukemia): 5.43 µM | TGI (HCT-116 colon): 32 µM | TGI (CCRF-CEM leukemia): > 27 µM | TGI (HOP-92 NSCLC): 33.6 µM | TGI (HCC-2998 colon): 29.6 µM | TGI (SK-OV-3 ovarian): 38.7 µM | TGI (MDA-N): 3.29 µM | TGI (RPMI-8226 leukemia): 61.2 µM | TGI (MOLT-4 leukemia): 13.7 µM | TGI (T-47D breast): 42.6 µM | TGI (NCI/ADR-RES ovarian): 48.1 µM | TGI (M14 melanoma): 31 µM | TGI (OVCAR-4 ovarian): 28.3 µM | TGI (SN12C renal): 23 µM | TGI (MDA-MB-435): 3.3 µM | TGI (A498 renal): 47.7 µM | TGI (786-0 renal): 29.3 µM | TGI (HT29 colon): 33.7 µM | TGI (OVCAR-5 ovarian): 36.5 µM | TGI (U251 CNS): 27.5 µM | TGI (SK-MEL-2 melanoma): 13.8 µM | TGI (SF-539 CNS): 34.2 µM | TGI (NCI-H522 lung): 29.1 µM | TGI (SF-268 CNS): 33.9 µM | TGI (IGROV1 ovarian): 31.6 µM | TGI (ACHN renal): 30.9 µM | TGI (HCT-15 colon): 27.8 µM | TGI (SF-295 CNS): 17.2 µM | TGI (SR leukemia): 7.06 µM | TGI (NCI-H460 lung): 39.3 µM | TGI (PC-3 prostate): 12.5 µM | TGI (SK-MEL-28 melanoma): 31.4 µM | TGI (OVCAR-8 ovarian): 37.2 µM | TGI (SNB-19 CNS): 27.5 µM | TGI (LOX IMVI melanoma): 11.5 µM | TGI (NCI-H226 lung): 46.1 µM | TGI (MCF7 breast): 36.6 µM | TGI (COLO 205 colon): 26.7 µM | TGI (UO-31 renal): 36.4 µM | TGI (TK-10 renal): 36.2 µM | TGI (MDA-MB-231 breast): 15.4 µM | TGI (RXF 393 renal): 31.4 µM | TGI (KM12 colon): 30.8 µM | TGI (EKVX NSCLC): 53.5 µM | TGI (DU-145 prostate): 30.1 µM | TGI (OVCAR-3 ovarian): 17 µM | TGI (MALME-3M melanoma): 24.2 µM | TGI (NCI-H23 lung): 22.7 µM | TGI (HOP-62 NSCLC): 32.9 µM | TGI (UACC-62 melanoma): 29.4 µM | TGI (A549 NSCLC): 42 µM | TGI (HS 578T breast): > 69.2 µM | TGI (SNB-75 CNS): 25.4 µM | TGI (HL-60(TB) leukemia): 5.06 µM | TGI (UACC-257 melanoma): 28.1 µM | TGI (CAKI-1 renal): 47.3 µM
